We go through one compound from BindingDB's records for doi:10.1021/jm0005454 (Cnrs, 2002).

SMILES strings stand for the structures.

The target in assay [1] is T1, Angiotensin-converting enzyme (Rattus norvegicus, UniProt P47820).
T1 sequence (P47820 whole entry): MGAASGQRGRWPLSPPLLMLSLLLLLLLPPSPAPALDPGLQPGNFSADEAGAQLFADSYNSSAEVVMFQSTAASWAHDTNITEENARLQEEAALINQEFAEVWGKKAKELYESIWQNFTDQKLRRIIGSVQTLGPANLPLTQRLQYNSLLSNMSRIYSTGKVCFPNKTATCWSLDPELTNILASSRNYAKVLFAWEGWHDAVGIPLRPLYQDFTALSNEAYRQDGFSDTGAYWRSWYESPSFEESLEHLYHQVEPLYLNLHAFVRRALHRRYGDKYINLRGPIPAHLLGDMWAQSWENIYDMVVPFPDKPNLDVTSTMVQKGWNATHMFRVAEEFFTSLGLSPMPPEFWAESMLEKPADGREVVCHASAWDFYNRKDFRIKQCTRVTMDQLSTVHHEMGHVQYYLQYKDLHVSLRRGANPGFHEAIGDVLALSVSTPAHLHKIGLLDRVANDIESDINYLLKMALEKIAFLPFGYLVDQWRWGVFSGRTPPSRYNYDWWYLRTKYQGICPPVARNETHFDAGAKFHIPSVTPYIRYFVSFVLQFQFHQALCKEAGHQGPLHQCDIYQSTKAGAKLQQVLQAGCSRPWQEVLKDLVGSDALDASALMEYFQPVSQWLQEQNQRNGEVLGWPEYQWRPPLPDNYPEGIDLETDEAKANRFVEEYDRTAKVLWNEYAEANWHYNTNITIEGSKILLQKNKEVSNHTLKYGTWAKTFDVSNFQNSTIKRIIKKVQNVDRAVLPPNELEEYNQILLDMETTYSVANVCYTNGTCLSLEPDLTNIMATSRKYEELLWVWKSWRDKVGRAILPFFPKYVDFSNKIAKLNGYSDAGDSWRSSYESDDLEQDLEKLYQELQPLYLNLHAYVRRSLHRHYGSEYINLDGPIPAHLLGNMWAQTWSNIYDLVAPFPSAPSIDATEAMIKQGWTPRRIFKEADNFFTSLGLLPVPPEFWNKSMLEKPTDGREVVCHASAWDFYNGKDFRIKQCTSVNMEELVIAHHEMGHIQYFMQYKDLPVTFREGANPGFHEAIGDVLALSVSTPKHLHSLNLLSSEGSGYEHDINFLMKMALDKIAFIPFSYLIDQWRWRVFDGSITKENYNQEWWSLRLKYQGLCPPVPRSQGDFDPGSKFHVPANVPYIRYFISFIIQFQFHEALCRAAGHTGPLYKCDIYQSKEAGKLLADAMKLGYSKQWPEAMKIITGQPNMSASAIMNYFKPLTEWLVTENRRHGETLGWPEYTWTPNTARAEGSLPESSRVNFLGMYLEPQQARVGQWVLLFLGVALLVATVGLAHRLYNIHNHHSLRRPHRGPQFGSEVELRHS
In words: In Vitro Inhibition of NEP. As to the method:
(§1) NEP was preincubated in black 96-well microplates with or without increasing concentrations of inhibitors. DGPA was added, and the reaction was stopped after 1 hr of incubation. The fluorescence was measured at excitation wavelength = 340 nm, emission wavelength = 530 nm.

In the next assay the target is T2, Neprilysin (Oryctolagus cuniculus, UniProt P08049).
T2 sequence (P08049 whole entry): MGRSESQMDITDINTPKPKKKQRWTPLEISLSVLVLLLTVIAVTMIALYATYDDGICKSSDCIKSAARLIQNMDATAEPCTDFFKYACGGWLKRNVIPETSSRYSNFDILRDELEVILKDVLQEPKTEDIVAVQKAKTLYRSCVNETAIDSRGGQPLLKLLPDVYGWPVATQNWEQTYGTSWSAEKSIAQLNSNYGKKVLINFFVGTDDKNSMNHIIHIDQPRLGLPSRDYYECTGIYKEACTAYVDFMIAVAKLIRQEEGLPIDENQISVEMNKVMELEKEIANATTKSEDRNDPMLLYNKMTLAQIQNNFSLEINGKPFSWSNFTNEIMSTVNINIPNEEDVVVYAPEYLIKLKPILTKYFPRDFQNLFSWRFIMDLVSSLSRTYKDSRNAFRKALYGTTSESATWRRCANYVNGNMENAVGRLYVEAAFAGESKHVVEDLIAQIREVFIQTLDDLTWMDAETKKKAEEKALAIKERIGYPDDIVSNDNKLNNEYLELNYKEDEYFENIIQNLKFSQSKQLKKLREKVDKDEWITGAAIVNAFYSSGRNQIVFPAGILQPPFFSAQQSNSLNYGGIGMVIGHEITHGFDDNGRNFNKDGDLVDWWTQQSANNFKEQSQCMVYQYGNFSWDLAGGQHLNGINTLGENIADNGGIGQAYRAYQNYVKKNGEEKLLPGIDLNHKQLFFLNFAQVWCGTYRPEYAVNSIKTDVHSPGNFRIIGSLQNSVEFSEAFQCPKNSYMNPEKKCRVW
In words: In Vitro Inhibition of NEP. Particulars: pH 7.4; 37 °C. As to the method:
as §1

Consider `O=C(O)[C@H](Cc1c[nH]c2ccccc12)NC(=O)[C@@H](CS)[C@@H]1CCCc2ccccc21` [(2S)-3-(1H-indol-3-yl)-2-[(2S)-3-sulfanyl-2-[(1S)-1,2,3,4-tetrahydronaphthalen-1-yl]propanamido]propanoic acid], for which the results for the Ki (in assay [1]; at Neprilysin) were 26 nM and 8 nM, respectively.
